In a compilation of properties of binary mixtures (doi:10.1021/acs.jced.3c00374):

Experiment: xn = mol fraction of the nth substance listed
Details: 100 kPa

OCCNCCO + CCCC[n+]1ccn(C)c1.N#C[S-]
x2 = 0
Details | speed of sound [m/s]
288.15 K | 1761.3
308.15 K | 1700.6
318.15 K | 1675.6

CCCC[n+]1ccn(C)c1.N#C[S-] + OCCNCCO
speed of sound [m/s]
Details | x1 = 0.1008 | x1 = 0.2103 | x1 = 0.2993 | x1 = 0.4027 | x1 = 0.5131 | x1 = 0.6087 | x1 = 0.7102 | x1 = 0.8009 | x1 = 0.9102 | x1 = 1
288.15 K | 1764.4 | – | 1770.6 | 1773.9 | 1777.3 | – | 1783.5 | 1786.3 | 1789.8 | 1792.6
298.15 K | 1732.8 | 1737 | – | 1744.5 | 1748.7 | 1752.4 | – | – | 1764 | 1767.5
308.15 K | 1704.9 | 1709.6 | – | 1717.8 | 1722.5 | – | 1731 | – | 1739.6 | 1743.4
318.15 K | 1680.4 | 1685.6 | 1689.8 | 1694.8 | 1700 | 1704.6 | 1709.4 | 1713.7 | – | –
